Source: patent US5578639A, “PLA2 inhibitors and their use for inhibition of intestinal cholesterol absorption” (Warner-Lambert Company, priority 1995, dated 1996)
Read-outs that look alike come from different tables or passages of the source.

Columns and labels:
[1] = tested on: plasma lipids; test: Plasma lipids in cholesterol-fed rats after oral PLA2 inhibitor; assay type: in vivo; details: 100 mg/kg oral gavage, about 8 hours after start of feeding
Description: Ultimately, agents that inhibit the absorption of dietary cholesterol should suppress postprandial increases in plasma cholesterol. This was tested with several. PLA2 inhibitors in cholesterol-fed rats. The general protocol consisted of preparing a carboxymethyl cellulose/Tween 20 dispersion of the compound of interest and administering it at a dose of 100 mg/kg by oral gavage to rats previously trained to meal-feed. Immediately following administration of the inhibitor, the rats were fed a lipid-rich meal of chow supplemented with cholesterol, peanut oil, and cholic acid.

[2] = target: T1, porcine pancreatic PLA2 (Sus scrofa, UniProt P00592); test: Fluorescence assay of porcine pancreatic PLA2 inhibition in vitro; assay type: biochemical
T1 construct: purchased Sigma Chemical Company (St. Louis, Mo.); host or cells: porcine pancreas
T1 sequence (P00592 23-146): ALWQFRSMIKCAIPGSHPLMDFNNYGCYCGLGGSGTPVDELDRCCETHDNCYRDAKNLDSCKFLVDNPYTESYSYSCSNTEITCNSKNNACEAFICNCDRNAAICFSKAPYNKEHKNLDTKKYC
Text: The IC50 values for inhibition of porcine pancreatic PLA2, in vitro, are included for comparison with the in vivo activities.
A sensitive fluorescence method was used to measure the activity of pancreatic phospholipase A2 (PLA2) in vitro. PLA2 hydrolyzes the ester bond linking fatty acids to the sn-2 position in glycerophospholipids. Several types of PLA2 exist, including those isolated from venoms, synovial fluid, platelets, immunoactive cell types and the pancreas. The pancreatic PLA2 was the subject of this experiment because of its fundamental role in promoting lipid absorption in the intestine.
PLA2 activity was detected by the loss of pyrene excimer fluorescence that occurs when (1-pyrenyl)decanoic acid is hydrolysed from the sn-2 position of 1,2-bis-(1-pyrenedecanoyl)sn-glycero-3-phosphocholine ((P10)2 PC) by the action of PLA2. The use of similar pyrene-labeled PC substrates to detect PLA2 activity has been described previously (Radvanyi F., Jordan L., Russo-Marie F., Bon C., "A sensitive and continuous fluorometric assay for phospholipase A2 using pyrene-labeled phospholipids in the presence of serum albumin." Anal. Biochem., 177:103-109 (1989)). The full photophysical basis for the assay is described elsewhere (Birks J. B., "Photophysics of Aromatic Molecules," Wiley Interscience, New York, pp 301-371 (1970)).
In brief, pyrene excimers are formed by the complexation of one pyrene moiety in the ground-state with one pyrene moiety in the excited state to form an excited-state dimer (excimer) which fluoresces at longer wavelengths (475 nm emission maximum) than the wavelength range in which excited-state pyrene monomers fluoresce (370-400 nm). Excimer formation is dependent on the concentration of pyrene moieties. (P10)2 PC emits excimer fluorescence almost exclusively due to the fixed juxtaposition of the pyrene chromophores. The substrate concentration is sufficiently dilute so that excimer formation between the products of PLA2 action, namely lysoPY10PC and the (1-pyrenyl)decanoic acid, is insignificant.
In general, this assay scheme should have been applicable to the study of any type of PLA2. However, since pancreatic PLA2 is unique from the other PLA2 's in that it operates almost exclusively against micellized PC, the PC substrate in this assay was micellized with 1 mM deoxycholic acid. The PC component of the micelles consisted of 5 μM (P10)2 PC substrate diluted with a 99-fold excess (495 μM) of 1-oleyl-2-palmityl phosphatidylcholine (OPPC). The OPPC was inert to PLA2 hydrolysis because it contained ether-linked fatty alkyl chains in place of the ester-linked fatty acyl chains of normal PC. OPPC was included to 1) dilute the micellar (P10)2 PC concentration thereby minimizing intermolecular excimer formation, and 2) preserve the integrity of the micelles against the action of PLA2 since nonspecific micelle disruption could lead to nonlinear kinetics and fluorescence changes independent of lipolysis.
Phospholipase A2 (porcine pancreas), bovine serum albumin (BSA) (fraction V, essentially fatty acid-free) and sodium deoxycholate were obtained from Sigma Chemical Company, (St. Louis, Mo.). 1-Oleyl-2-palmityl-DL-phosphatidylcholine (OPPC) was ordered from Serdary Research Laboratories, Inc. (London, Ont., Canada). 1,2-Bis-(1-pyrenedecanoyl)-sn-glycero-3-phosphatidylcholine ((P10)2 PC) was obtained from Molecular Probes, Inc. (Eugene, Oreg.).
HEPES buffer (SHE) contained 150 mM NaCl, 20 mM HEPES (N-[2-hydroxyethyl]piperazine-N'-[2-ethanesulfonic acid]) and 1 mM EDTA (ethylenediamine tetraacetic acid) at pH 8.0.
1 mM (P10)2 PC in chloroform was prepared by adding 1 mL chloroform to a vial containing 1 mg of (P10)2 PC, as shipped by Molecular Probes. The actual concentration was determined spectrophotometrically by diluting 10 μL of the chloroform solution in 2 mL of ethanol. The absorbance spectrum of the ethanol solution was measured between 380 nm to 280 nm (Beckman DU-64). […]

[3] = tested on: PLA2; details: methyl-phosphatidic acid substrate; Jain et al. 1992; read-out: IC50 in "scooting-mode" assay; cited from earlier work
[4] = tested on: intestinal lipid absorption; test: Lymph-fistula rats, diester and diether PC analogs; assay type: in vivo, rat
Text: The intestinal lipid absorption pathway was isolated in the rat by inserting an infusion cannula in the proximal duodenum and implanting a second cannula in the mesenteric lymph vessel to intercept the lipoprotein output from the intestine. This lymph-fistula rat model was used to investigate the effect of pancreatic PLA2 inhibition, in situ, on intestinal absorption of infused lipid emulsions. In a typical experiment, cannulae were implanted the day before the experimental infusion. Following surgery, the animals were infused (2.5 mL/hr) with isotonic saline containing dextrose to flush the GI tract and obtain basal levels of lymphatic lipid output. On the day of the experiment, infusion of the dextrose recovery solution was continued for 1 hour to collect a basal lymph fraction. At the start of the next hour, the intake of the duodenal infusion cannula was switched to a lipid emulsion of isotonic saline containing safflower oil (59 mM), cholesterol (5.2 mM), PC (3.3 mM) and taurocholic acid (1.9 mM). One hour lymph fractions were collected until the end of the experiment. The lipid content (mass) of lymph fractions was determined by HPLC with a mass-sensitive, evaporative light-scattering detector.
PC analogs in which the normal acyl chains are replaced by alkyl carbon chains linked to the glycerol backbone by ether bonds have physical-chemical properties similar to conventional diester PC molecules but are not hydrolyzable by PLA2. To determine the significance of micellar PC hydrolysis in intestinal lipid absorption, a comparison was made of the mesenteric lymph lipid output from rats infused with lipid microemulsions prepared with 1,2-dipalmitoyl PC (DPPC(ester)) or 1,2-dipalmityl PC (DPPC(ether)) as the PC constituent. […] The total lymphatic CE output over the 12-hour period of DPPC(ether) infusion was only 47% of total CE output obtained with the DPPC(ester) emulsion.

[5] = tested on: Caco-2 cells; test: Caco-2 phospholipase A2-dependent cholesterol absorption, time course; assay type: cell-based, human
[6] = tested on: Caco-2 cells; test: Caco-2 lipid absorption versus micellar phospholipid composition; assay type: cell-based, human
Description: Caco-2 cells were used as a tissue culture model of the human intestinal epithelium to compare the effects of phosphatidylcholine and lysophosphatidylcholine on lipid absorption and the subsequent re-esterification and secretion of micelle-derived lipids.
Caco-2 cell monolayers, grown on micropore membranes separating apical and basolateral culture solutions, were incubated with taurocholate, mixed-lipid micelles composed of 5 mM taurocholic acid, 300 μM monooleoylglycerol, 500 μM [^3 H]oleic acid, 100 μM [^14 C]cholesterol, and 200 μM phospholipid consisting of various proportions of 1-palmitoyl-2-oleoyl phosphatidylcholine and 1-palmitoyl lysophosphatidylcholine. The micelles were added to the apical side of the cell monolayers. Phospholipid-free micelles were also tested for comparison. At the end of 6 hours of incubation, the radiolabeled lipid content of the cells and in the basolateral media were determined. Phospholipid content strongly influenced the absorption and metabolism of cholesterol (FIGS. 1, 2) but had only minimal effects on fatty acid uptake and metabolism (FIG. 3). Caco-2 monolayers incubated with micelles containing only phosphatidylcholine as the phospholipid absorbed 65% less [^14 C]cholesterol than cell monolayers incubated with phospholipid-free micelles.

[7] = tested on: cholesterol absorption; details: Rampone and Long 1977; cited from earlier work
[8] = tested on: serum cholesterol; details: neomycin 1.5-2 g/day; β-sitosterol 3-50 g/day; cited from earlier work
[9] = porcine pancreatic PLA2, in vitro, read-out: In Vitro IC50 (porc. panc. PLA2)

Row | Compound | % Change in plasma lipids vs. Control: HDL Chol. [1] | % Change in plasma lipids vs. Control: Total Chol. [1] | % Change in plasma lipids vs. Control: non-HDL Chol. [1] | IC50 [2, 9] | % Change in plasma lipids vs. Control: TG [1] | other results
1 | 1-[4,4-bis(4-fluorophenyl)butyl]-3-(3-methoxyphenyl)-3-methyl-pyrrolidine [Compound C] | 38% | -30% | -49% | 5.7 µM |  | 
2 | CCCCCCC(c1ccc(O)c(C)c1)c1ccc(O)c(C)c1 [Compound A, 4,4'-heptylidenebis-2-methyl-phenol] | 1% | -24% | -32% | 2.2 µM | -11% | 
3 | CCCCCCCC/C=C\CCCCCCCC(N)=O [Compound E, (Z)-9-octadecen-amide, reference compound] | 2% | -42% | -56% | 2.4 µM | -35% | IC50 ([2]; FIG. 12, (P10)2 PC substrate, read-out: IC50 in the fluorescence assay): 3 µM; IC50 [3]: 0.1 µM
4 | Cc1ccc(Nc2cccc(Cl)c2)c(/C=C/C(=O)O)c1 [Compound F, 2-(M-chloroanilino)-5-methyl-trans-cinnamic acid] | 2% | -15% | -20% | 8.6 µM | -5% | 
5 | Cc1ccc(Nc2ccccc2F)c(/C=C/C(=O)O)c1 [Compound G, 2-(O-fluoroanilino)-5-methyl-trans-cinnamic acid] | 15% | -12% | -21% | 4.6 µM | -24% | 
6 | CCCCCCCCCCCCCCCCOCC(COP(=O)([O-])OCC[N+](C)(C)C)OCCCCCCCCCCCCCCCC (stereo not drawn) [DPPC(ether), 1,2-dipalmityl PC] |  |  |  |  |  | total lymphatic CE output relative to DPPC(ester) ([4]; 12-hour infusion): 47%; time until lymphatic cholesteryl ester output rose above basal ([4]; after initiation of lipid emulsion infusion): 8 h; onset of rise in lymphatic TG and PC output ([4]; following initiation of lipid infusion): not delayed; total lymphatic PC output relative to DPPC(ester) ([4]; infusion of lipid emulsion): 75%; total lymphatic TG output relative to DPPC(ester) ([4]; infusion of lipid emulsion): 71%
7 | CCCCCCCCCCCCCCCC(=O)OCC(O)COP(=O)([O-])OCC[N+](C)(C)C (stereo not drawn) [lysophosphatidylcholine, 1-palmitoyl lysophosphatidylcholine] |  |  |  |  |  | [3H]oleate-labeled PC synthesis relative to phospholipid-free micelles [5]: slight decrease; reversal of PC effect on cholesterol absorption ([6]; 6 hours, lysophosphatidylcholine substituted for phosphatidylcholine): reversed this effect, but only when the mole fraction of micellar lysophosphatidylcholine was greater than 50%; inhibition of cholesterol absorption by intestinal segments [7]: no inhibition
8 | CCCCCCCCCCCCCCCCOCC(COP(=O)([O-])OCC[N+](C)(C)C)OCCCCCCCCCCCCCCCC (stereo not drawn) [nonhydrolyzable phospatidylcholine] |  |  |  |  |  | absorption of lipids into cells (figure legend) ([4]; FIG. 9, nonhydrolyzable phosphatidylcholine): prevents absorption of lipids into cells
9 | CCCCCCCC/C=C\CCCCCCCC(=O)OC(COC(=O)CCCCCCCCCCCCCCC)COP(=O)([O-])OCC[N+](C)(C)C (stereo not drawn) [phosphatidylcholine, 1-palmitoyl-2-oleoyl phosphatidylcholine] |  |  |  |  |  | esterification of micellar [14C]cholesterol ([6]; FIG. 1C, micelles with 50% or more of choline lipid as PC): reduced to an even greater extent; inhibition at 200 µM ([6]; Homo sapiens, Caco-2, 6 h, read-out: [14C]cholesterol absorbed, reduction vs. phospholipid-free micelles): 65%; ACAT activity in cells ([6]; PC-containing micelles): diminished
10 | Neomycin |  |  |  |  |  | reductions in serum cholesterol levels [8]: up to 25%
